Structures can show the parent of a compound that is named as a salt.
Key:
[1] = system: NRF2/ARE luciferase reporter HEK293 cells; assay: Cytotoxicity in the reporter cell assay; assay type: cell-based
Method: (§1) NRF2/ARE responsive luciferase reporter HEK293 cells (Signosis, Santa Clara, USA) were seeded at 1×10^5 cells/well in 48-well plates (Corning, Tewksbury, USA) in supplemented Dulbecco's Modified Eagle Medium (DMEM) containing 4.5 g/L glucose (HyClone, Pittsburgh, USA) (10% fetal bovine serum (FBS) (ThermoFisher Scientific, Waltham, USA) and 1% penicillin/streptomycin (Gibco, Waltham, USA)) and cultured overnight at 37° C., 5% CO2, in a humidified environment. The next morning, the media was replaced with supplemented DMEM (1% FBS (ThermoFisher Scientific) and 1% penicillin/streptomycin (Gibco)). Cells were then treated with a concentration range of each example of compounds described in the invention or monomethyl fumarate (0-100 μM), together with 10 μM hydrogen peroxide (H2O2) (Sigma Aldrich, St Louis, USA), 10 μM peroxynitrite (PN) (Sigma Aldrich), or supplemented media (negative control). tert-Butylhydroquinone (tBHQ; 10 μM) (Sigma-Aldrich) was used as positive control. Each condition was run in triplicate and observations confirmed over at least two additional replications.

leukocytes = assay: Absolute leukocyte count in naive mice; assay type: in vivo; settings: 350 μmol/kg oral, daily for 10 days
Method: Compounds were suspended with methylcellulose (viscosity 15 cP, 2% w/v in water;) and administered by oral gavage. For SNI anti-nociception, compounds were administered for 3 days (350 μmol/kg/day), beginning 7 days after SNI, and continuing for 3 (reflex tests) or 7 days (conditioned place preference tests). For leukopenia assessment, compounds were administered to naïve mice for 10 days (350 μmol/kg/day). Equivolume methylcellulose (2% w/v) was used as vehicle control for all compounds. An independent investigator dosed the mice in order to maintain blinding to treatment groups for the other investigators who performed the behavioral testing.
Leukocytes from cardiac blood were stained with Turk's solution according to manufacturer instructions, and manually counted on a hemocytometer by an experimenter who was blinded to treatment conditions.

[2] = system: spared nerve injury (SNI) model of neuropathic pain; assay: Conditioned place preference assay (spontaneous pain) after spared nerve injury; assay type: in vivo; settings: 350 μmol/kg oral, daily for 7 days, nerve-injured mice
Method: Pathogen-free adult male and female C57BL/6J mice (8 weeks old on arrival; The Jackson Laboratory, Bar Harbor, USA) were used. Mice were housed five per cage in a light- and temperature-controlled room (12:12-h light-dark cycle, light on at 7:00 AM) with food and water available ad libitum. All procedures were approved by the MD Anderson Cancer Center Animal Care and Use Committee. SNI was performed under inhaled isoflurane anesthesia. The tibial and common peroneal nerves were isolated, tightly ligated with 6-0 silk, and transected immediately distal to the ligation. The sural nerve was left intact. Animals were monitored post-operatively until fully ambulatory prior to return to their home cage. Compounds were suspended with methylcellulose (viscosity 15 cP, 2% w/v in water;) and administered by oral gavage. For SNI anti-nociception, compounds were administered for 3 days (350 μmol/kg/day), beginning 7 days after SNI, and continuing for 3 (reflex tests) or 7 days (conditioned place preference tests). For leukopenia assessment, compounds were administered to naïve mice for 10 days (350 μmol/kg/day). Equivolume methylcellulose (2% w/v) was used as vehicle control for all compounds. An independent investigator dosed the mice in order to maintain blinding to treatment groups for the other investigators who performed the behavioral testing. […] The time spent in the light chamber was recorded. […]

NRF2/ARE = NRF2/ARE responsive luciferase reporter assay in HEK293 cells; assay type: cell-based; settings: 16 h; for NRF2 activity in the presence of H2O2 or ONOO− compared to media control: 10 μM H2O2 or 10 μM ONOO−, 0-100 μM compound; for NRF2 activity relative to MMF: 0-100 μM
Method: as §1
After 16 h of incubation with examples of compounds described in the invention and ROS/RNS, cells were washed gently with 500 μL PBS (Sigma-Aldrich) and then incubated in 40 μL passive lysis buffer (Promega, Madison, USA) at room temperature. After 20 mins, 30 μL was transferred from each well to a 96-well clear-bottom, white-wall plate (Corning). Luciferase substrate (Signosis; 150 μL) was added to each well and gently mixed. Luminesence was immediately read on a Synergy HTX multi-mode microplate reader (BioTek, Winooski, USA).
Differences between in vitro concentration-response relationships were determined by comparing the slopes of fitted functions for shared parameters. Linear models were selected as the pharmacologically-relevant concentrations tested were within the linear range of the concentration-response functions. Mechanical allodynia was analyzed as the interpolated 50% thresholds (absolute threshold). One-way ANOVA was used to confirm that there were no baseline differences in absolute thresholds or dynamic scores between treatment groups. Differences between treatment groups for behavior were determined using repeated measures two-way ANOVA, followed by Tukey's or Sidaks post hoc tests. Biochemical data were analyzed by one- or two-way ANOVA, followed by Tukey's post hoc tests. Results are expressed as mean±standard deviation (SD). P<0.05 was considered statistically significant.

[3] = system: spared nerve injury (SNI) model of neuropathic pain; assay: Dynamic allodynia (paintbrush stroking) after spared nerve injury; assay type: in vivo; settings: 350 μmol/kg oral, daily for 3 days, SNI mice, ipsilateral paw
Method: Pathogen-free adult male and female C57BL/6J mice (8 weeks old on arrival; The Jackson Laboratory, Bar Harbor, USA) were used. Mice were housed five per cage in a light- and temperature-controlled room (12:12-h light-dark cycle, light on at 7:00 AM) with food and water available ad libitum. All procedures were approved by the MD Anderson Cancer Center Animal Care and Use Committee. SNI was performed under inhaled isoflurane anesthesia. The tibial and common peroneal nerves were isolated, tightly ligated with 6-0 silk, and transected immediately distal to the ligation. The sural nerve was left intact. Animals were monitored post-operatively until fully ambulatory prior to return to their home cage. […] Dynamic mechanical hypersensitivity was measured by light stroking (velocity is 2 cm/s) of the external lateral side of the injured hind paw in the direction from heel to toe with a paintbrush. The paw withdrawal response was scored according to the following criteria, score=0: walking away or occasionally very brief paw lifting […]; score=1: sustained lifting (>2 s) of the stimulated paw toward the body; score=2: a strong lateral lifting above the level of the body; score=3: flinching or licking of the affected paw. […] Differences between in vitro concentration-response relationships were determined by comparing the slopes of fitted functions for shared parameters. […]

[4] = system: spared nerve injury (SNI) model of neuropathic pain; assay: Tactile allodynia (von Frey test) after spared nerve injury; assay type: in vivo, mice; settings: for tactile allodynia: 350 μmol/kg oral, daily for 3 days, SNI mice, ipsilateral paw
Method: Pathogen-free adult male and female C57BL/6J mice (8 weeks old on arrival; The Jackson Laboratory, Bar Harbor, USA) were used. Mice were housed five per cage in a light- and temperature-controlled room (12:12-h light-dark cycle, light on at 7:00 AM) with food and water available ad libitum. All procedures were approved by the MD Anderson Cancer Center Animal Care and Use Committee. SNI was performed under inhaled isoflurane anesthesia. The tibial and common peroneal nerves were isolated, tightly ligated with 6-0 silk, and transected immediately distal to the ligation. The sural nerve was left intact. Animals were monitored post-operatively until fully ambulatory prior to return to their home cage. Compounds were suspended with methylcellulose (viscosity 15 cP, 2% w/v in water;) and administered by oral gavage. For SNI anti-nociception, compounds were administered for 3 days (350 μmol/kg/day), beginning 7 days after SNI, and continuing for 3 (reflex tests) or 7 days (conditioned place preference tests). For leukopenia assessment, compounds were administered to naïve mice for 10 days (350 μmol/kg/day). Equivolume methylcellulose (2% w/v) was used as vehicle control for all compounds. An independent investigator dosed the mice in order to maintain blinding to treatment groups for the other investigators who performed the behavioral testing. Testing was conducted blind with respect to group assignment. […] Tactile allodynia was measured using the von Frey test. The 50% paw withdrawal threshold was determined using the “up-down” method. Differences between in vitro concentration-response relationships were determined by comparing the slopes of fitted functions for shared parameters. […] Mechanical allodynia was analyzed as the interpolated 50% thresholds (absolute threshold). […] Differences between treatment groups for behavior were determined using repeated measures two-way ANOVA, followed by Tukey's or […] post hoc tests. Biochemical data were analyzed by one- or two-way ANOVA, followed by Tukey's post hoc tests. Results are expressed as mean±standard deviation (SD). […]

[5] = measured, Arch Dermatol Res. 2010, 302(7), 531-8; cited from earlier work

SMILES	spontaneous pain: preference for the retigabine-paired light chamber [2]	NRF2 activity in the presence of H2O2 or ONOO− compared to media control (NRF2/ARE)	dynamic allodynia [3]	tactile allodynia [4]	NRF2 activity relative to MMF (NRF2/ARE)	other results
COC(=O)/C=C/C(=O)C(=O)OC [Example A, 1,5-dimethyl (2E)-4-oxopent-2-enedioate]	did not develop a preference for the retigabine-paired light chamber	increased NRF2 activity in the presence of H2O2 or ONOO^−	reversed	reversed		toxicity in the concentration range tested ([1]; 0-100 μM): no toxicity in the concentration range tested; absolute leukocyte count (leukocytes): did not cause a decline in absolute leukocyte count; efficacy on tactile and dynamic allodynia relative to diroximel fumarate ([4]; 350 μmol/kg oral each, 3 days, both measures): greater efficacy than diroximel fumarate
COC(=O)/C=C/C(=O)C(=O)NCc1ccccc1 [Example C, methyl (2E)-4-(benzylcarbamoyl)-4-oxobut-2-enoate]		did not selectively increase NRF2 activity			activated NRF2 to a greater extent than MMF	cytotoxic concentration [1]: above 50 μM
COC(=O)/C=C/C(=O)C(=O)c1ccccc1 [Example D, methyl (2E)-4,5-dioxo-5-phenylpent-2-enoate]		increased NRF2 activity in the presence of H2O2 or ONOO^−			at lower levels than MMF	
COC(=O)/C=C/C(=O)C(=O)O [Example J, (3E)-5-methoxy-2,5-dioxopent-3-enoic acid]			reversed	reversed		
COC(=O)/C=C/C(=O)O [MMF, monomethyl fumarate]						pKa [5]: 3.63
COC(=O)/C=C/C(=O)OCCN1C(=O)CCC1=O [diroximel fumarate, reference compound]	did not develop a preference for the retigabine-paired light chamber					

— patent US20230139593A1, “TREATMENT OF DISORDERS ASSOCIATED WITH OXIDATIVE STRESS AND COMPOUNDS FOR SAME” (The University of Adelaide, priority 2020, published 2023)
